# Experimental data taken from US12201591B2, “Sustained release compositions of endoxifen” (Atossa Therapeutics, Inc., priority 2019, dated 2025).
# Values joined by “and” are separate entries in the source; they are usually repeats but may differ in a detail not shown here. Equal values may be shown once. Read-outs that look alike come from different tables or passages of the source.
# Legend:
# [1] = cited from earlier work
# [2] = Phase I pharmacokinetic study of (Z)-endoxifen tablet and capsule, single and multiple dose; type: in vivo, human; settings: for (E)-endoxifen levels in serum and plasma: all the times studied
# Protocol: A total of 24 healthy female subjects aged ≥18 years and ≤65 years (inclusive) at the time of screening were randomly assigned and enrolled into two groups (each group n=12) in double-blinded fashion and received the study drug by once daily oral administration. […] Both groups were dosed in the SAD phase of the study. The safety and PK results from both groups were reviewed to determine if both Groups 1 and 2 were to be dosed in the MAD phase of the study, or if only Group 2 (tablets) were to be dosed in the MAD phase. […] The subjects then received 14 daily doses in the MAD. Subjects were not required to take the drugs with food.
# Subjects were admitted to the clinical facility on Day 1 for up to 3 days. […] Following completion of all safety assessments and sampling for PK analyses, subjects were discharged from the clinical facility on Day 2. Days 2 to 25 were study drug free or daily dosing pause. A safety summary and up to day 6 post dose, PK data were analyzed (blindedly) and reviewed prior to initiation of the MAD regimen in one or both groups.
# MAD regimen started on Day 26. Depending on the outcome of the safety and PK review, wither […] or both Groups 1 and 2 were to be dosed in the MAD part of the study starting on Day 26. […] Subjects in MAD part of the study commenced daily oral administration of the study drug for 14 consecutive days (Days 26 to 39). Subjects were supplied with study drug and instructed to self-administer each morning on empty stomach.
# Day 39 was the last day of study drug administration. On Day 39, each subject returned to the clinical facility prior to dose administration and were confined to the facility until Day 40 to allow for collection of blood for PK and safety assessment. Subjects were discharged on Day 40 and returned for blood collection for PK and safety assessment on study Days 42, 44, and 46.
# Safety and PK samples was collected during the daily dosing pause on Days 4, 6, 15, and 22.
# MAD: Day 26 pre-dose and on Day 32 pre-dose: safety and PK samples was collected. […] Pharmacokinetic parameters determined using Phoenix WinNonlin 8.1. All times used in the calculations of PK parameters were the actual elapsed time from most recent treatment administration, with the exception of pre-dose data which was given the nominal time of 0.00 hr.
# [3] = Forced degradation (acid, base, heat, oxidation); type: physicochemical
# [4] = Phase 2 clinical trial of oral endoxifen: safety and tolerability; type: in vivo, human; settings: 4 mg/day, 16-40 days
# Protocol: Secondary effects of orally administered (Z)-endoxifen were also assessed, namely the effect of pre-operative (Z)-endoxifen treatment on the expression levels of estrogen receptor and progesterone receptor. […] Additional exploratory objectives including assessing the effect of pre-operative (Z)-Endoxifen treatment on PCNA (S phase), phospho-Histone H3 (M phase), p16 and p21 (senescence), Beta-Galactosidase (senescence), and TUNEL (apoptosis) markers, and identifying tumor RNA expression changes using RNA sequence.
# An initial group of six subjects was selected. Subjects visited the clinical facility once within 2 days prior to commencement of treatment for study assessments. […]
# Each subject returned to the clinical facility for safety assessments on a day during the week preceding their scheduled surgery. The expression of Ki-67, ER, progesterone receptor (PgR), and other exploratory markers, was measured in tumor tissue obtained during the mastectomy (or lumpectomy) and compared to the expression of these markers in pre-operative baseline biopsy material obtained prior to commencement of study treatment. […] Ki-67, ER, PgR expression were measured using standard immunopathology techniques, and exploratory markers were measured using established laboratory assays. Endoxifen levels in blood measured in blood drawn prior to dosing on day 14 of study treatment administration. […]
# [5] = Phase I study: safety and tolerability of (Z)-endoxifen tablet and capsule; type: in vivo, human
# Text: The primary objective of the study was to determine and compare the pharmacokinetics of a single oral dose of a previously studied oral (Z)-endoxifen capsule with a sustained release composition in the form of an enteric coated delayed release (Z)-endoxifen tablet (“tablet”) in healthy female volunteers. […] A secondary objective of the study was to assess the safety and tolerability of each of the oral presentation groups and to assess and compare the side effects associated with (Z)-endoxifen (capsule) or the enteric coated delayed-release (Z)-endoxifen tablet using a questionnaire.
# A study diary was provided to each participant for the purpose of recording study drug administration (date and time) and adverse events.
# Study assessments included taking the subjects' medical history, including evaluation of any on-study adverse events and concomitant medication use; height and weight; physical examination; periodic vital signs (body temperature, heart rate, respiratory rate, blood pressure); periodic 12-lead ECGs. Laboratory tests included hematology, coagulation, urinalysis, serum chemistry, virology, illicit drug screen, alcohol breath test, and pregnancy test.
# Specific assessment to evaluate treatment safety included the following: the frequency and type of adverse events, clinical laboratory testing, 12-lead-ECGs and vital signs. A modified FACTES® scoring questionnaire was used to assess symptomatology.
# [6] = Safety, tolerability and pharmacokinetics of (Z)-Endoxifen in healthy female volunteers (Protocol AG-1001-AU-001); type: in vivo, human
# Protocol: The safety, tolerability and pharmacokinetics of (Z)-Endoxifen was assessed in healthy female volunteers (Protocol AG-1001-AU-001). Participants were treated with oral (Z)-Endoxifen (1 mg, 2 mg and 4 mg) once daily for a total of fifteen doses (Days 1, and 8-21).
# Average concentration at steady state (AUCtau/tau) were compared to published values.
# [7] = system: breast cancer tumor cell proliferation (Ki-67); test: Phase 2 clinical trial of oral endoxifen: Ki-67 in breast cancer tumors; type: in vivo, human
# Protocol: A phase 2 clinical trial of (Z)-endoxifen for treatment of breast cancer was performed. Subjects with invasive breast cancer were administered (Z)-endoxifen orally prior to undergoing mastectomy or lumpectomy. The effect of pre-operative oral (Z)-endoxifen treatment on clinical response measured by Ki-67 expression levels was assessed. Ki-67 expression levels were used as a measure of tumor cell proliferation in the subjects. The purpose of this study was to determine the effect of orally administered endoxifen on breast cancer tumor cell proliferation.
# Subjects were selected who had received an invasive breast cancer diagnosis that required a mastectomy or lumpectomy, in which the cancer was Estrogen Receptor (ER) positive and Human Epidermal growth factor Receptor 2 (HER2) negative.
# Subjects with ER positive invasive breast cancer that were scheduled for mastectomy or lumpectomy were considered for the study. Subjects consenting to the study were screened within 28 days prior to commencement of the dosing. Potential subjects were asked to consent to have tissue sections obtained from the biopsy material used for their immunopathology diagnosis. The biopsy material was used to determine baseline expression levels for Ki-67, ER, PgR and the exploratory markers.
# An initial group of six subjects was selected. Subjects visited the clinical facility once within 2 days prior to commencement of treatment for study assessments. Subjects were supplied with study drug and were asked to self-administer daily. A study diary was provided to each subject for the purpose of recording study drug administration (date and time) and any adverse events. All subjects received an oral daily dose of 4 mg/day (Z)-Endoxifen until the day preceding their scheduled surgery and for a minimum of 14-days. Subjects were instructed to take each dose in the morning in a fasted state, defined as no food at least 8 hours prior to study medication through to one hour following study medication. Subjects were instructed to self-administer (Z)-Endoxifen orally with a full cup (approximately 240 mL) of noncarbonated room temperature water (additional water is permitted, if needed). There are no restrictions related to water intake. Consecutive doses were administered 24 (±2) hours apart. If a scheduled dose was missed, the dose could be taken up to 6 hours after the scheduled dose.
# Each subject returned to the clinical facility for safety assessments on a day during the week preceding their scheduled surgery. The expression of Ki-67, ER, progesterone receptor (PgR), and other exploratory markers, was measured in tumor tissue obtained during the mastectomy (or lumpectomy) and compared to the expression of these markers in pre-operative baseline biopsy material obtained prior to commencement of study treatment. Pharmacodynamic exploratory markers including Proliferating cell nuclear antigen (PCNA, S phase), phosphor-histone H3 (M phase), p16 and […] (senescence), beta-galactosidase (senescence), Terminal deoxynucleotidyl transferase dUTP nick end labeling (TUNEL, apoptosis), and RNA sequence were assessed. Ki-67, ER, PgR expression were measured using standard immunopathology techniques, and exploratory markers were measured using established laboratory assays. Endoxifen levels in blood measured in blood drawn prior to dosing on day 14 of study treatment administration. Individual and mean serum and plasma concentrations of Endoxifen were tabulated.
# [8] = multiple administration dose phase
# [9] = single administration dose phase
compound,measurement,setting,value
CC/C(=C(\c1ccc(O)cc1)c1ccc(OCCNC)cc1)c1ccccc1.Cl [Endoxifen Chloride],(Z)-Endoxifen Plasma,"[1]; 20 mg/day, Aromatase Inhibitor Refractory Metastatic Breast Cancer, Goetz et al. 2013",390 nM
same,Outcomes,"[1]; 20 mg/day, Goetz et al. 2013",Gr 2 hot flash (1
same,(Z)-Endoxifen Plasma,"[1]; 40 mg/day, Aromatase Inhibitor Refractory Metastatic Breast Cancer, Goetz et al. 2013",660 nM
same,Outcomes,"[1]; 40 mg/day, Goetz et al. 2013",None; Stable disease
same,(Z)-Endoxifen Plasma,"[1]; 60 mg/day, Aromatase Inhibitor Refractory Metastatic Breast Cancer, Goetz et al. 2013","1,010 nM"
same,Outcomes,"[1]; 60 mg/day, Goetz et al. 2013",Gr 4 Triglycerides
same,(Z)-Endoxifen Plasma,"[1]; 80 mg/day, Aromatase Inhibitor Refractory Metastatic Breast Cancer, Goetz et al. 2013","1,610 nM"
same,Outcomes,"[1]; 80 mg/day, Goetz et al. 2013",Gr 2 Hot flashes
same,(Z)-Endoxifen Plasma,"[1]; 100 mg/day, Aromatase Inhibitor Refractory Metastatic Breast Cancer, Goetz et al. 2013","2,480 nM"
same,Outcomes,"[1]; 100 mg/day, Goetz et al. 2013",Gr 2 nausea (1 pt); Gr
same,(Z)-Endoxifen Plasma,"[1]; 120 mg/day, Aromatase Inhibitor Refractory Metastatic Breast Cancer, Goetz et al. 2013","2,180 nM"
same,Outcomes,"[1]; 120 mg/day, Goetz et al. 2013","Gr 2 hypersomnia,"
same,Outcomes: maximum tolerated dose,"[1]; 20->160 mg/day, Goetz et al. 2015","not observed. 1 DLT,"
same,(Z)-Endoxifen Plasma,"[1]; 160 dose (20->160 mg/day), Goetz et al. 2015","3,600 nM"
"CCC(=C(c1ccc(O)cc1)c1ccc(OCCNC)cc1)c1ccccc1 [(Z)-endoxifen, 4-hydroxy-N-desmethyl-tamoxifen]",Plasma (Z)-endoxifen level,[2]; by Day 26 (600 hours post-dose),below the detection levels
same,concentration at 14 days,"[2]; female, human, blood, oral, 14 once daily 4 mg doses, read-out: (Z)-endoxifen maintained in the blood",~13 ng/mL and > 30 nM
same,mean serum versus time-point matched mean plasma (Z)-endoxifen concentration,[2]; [8],approximately 1.2 fold
same,time to achieve steady state levels of plasma and serum (Z)-endoxifen,[2]; once daily 4 mg doses,approximately 14 days
same,mean serum versus time-point matched mean plasma (Z)-endoxifen concentration,[2]; [9],approximately 1.1 fold
same,% degradation,[3]; Acid: 0.5N HCl for 27 hrs,No degradation
same,% degradation,[3]; Base: 0.5N NaOH for 27 hrs,0.12%
same,% degradation,[3]; Heat: 105° C. for 51 hrs,No degradation
same,"safety or tolerability issues, including vasomotor symptoms",[4],no safety or tolerability issues
same,"night sweats reported, percent of subjects","[5]; multiple dose administration phase, 2 of 19 subjects",11%
same,"hot flash reported, percent of subjects","[5]; multiple dose administration phase, 4 of the 18 subjects",22%
same,"hot flash reported, percent of subjects","[5]; single dose administration phase, 2 of 18 subjects",11%
same,Published Literature Result of Average Plasma (Z)-Endoxifen Css,[1]; 1 mg dose,12.4 ng/mL and 33.1 nM
same,Published Literature Result of Average Plasma (Z)-Endoxifen Css,[1]; 2 mg dose,18.6 ng/mL and 49.8 nM
same,Published Literature Result of Average Plasma (Z)-Endoxifen Css,[1]; 4 mg dose,56.8 ng/mL and 152.1 nM
same,Published Literature Result of Average Plasma (Z)-Endoxifen Css,[1]; 8 mg dose,96.8 ng/mL and 259.2 nM
same,% Ratio of Css Study (serum)/Literature (plasma),[6]; 1 mg dose,154%
same,Study Result of Average Serum (Z)-Endoxifen Css,[6]; 1 mg dose,19.1 ng/mL and 51.1 nM
same,Cmax and AUC24 hr across the three dose levels,"[6]; 1 mg, 2 mg and 4 mg",dose-proportionality
same,safety signals,"[6]; 1 mg, 2 mg and 4 mg once daily, fifteen doses",no clinically significant safety signals
same,% Ratio of Css Study (serum)/Literature (plasma),[6]; 2 mg dose,204%
same,Study Result of Average Serum (Z)-Endoxifen Css,[6]; 2 mg dose,38 ng/mL and 101.7 nM
same,% Ratio of Css Study (serum)/Literature (plasma),[6]; 4 mg dose,150%
same,Study Result of Average Serum (Z)-Endoxifen Css,[6]; 4 mg dose,85.1 ng/mL and 227.9 nM
same,half-life,"[6]; female, human, serum, oral, 1 mg, 2 mg and 4 mg, read-out: mean half-life (t1/2) by dose level",42 to 53 h
same,time to steady state,[6]; once daily dosing,approximately 7 days
same,commonly occurring adverse events with a relationship of possible or probable,[6]; only reported in participants who received (Z)-Endoxifen,"upper respiratory infection, hot flush, abdominal distension, dry mouth and menstruation delayed"
same,tolerability,"[6]; single dose and then daily for 14 days, 1 mg, 2 mg and 4 mg",well tolerated
same,"Ki-67% reduction, AVERAGE","[7]; initial results, six subjects, 4 mg/day, average 22 days",69%
same,Ki-67 reduction in every patient,"[7]; six subjects, 4 mg/day",more than 50%
same,Ki-67 level after Endoxifen treatment (all patients),"[7]; six subjects, 4 mg/day, 16-40 days",low (low (defined as less than ˜14%))
same,Ki-67% reduction,[7]; subject R1001,60%
same,Post Endoxifen Ki-67%,"[7]; subject R1001, 21 days on Endoxifen 4 mg, pre 5%",2%
same,Ki-67% reduction,[7]; subject R1002,60%
same,Post Endoxifen Ki-67%,"[7]; subject R1002, 23 days on Endoxifen 4 mg, pre 20%",8%
same,Ki-67% reduction,[7]; subject R1003,87%
same,Post Endoxifen Ki-67%,"[7]; subject R1003, 17 days on Endoxifen 4 mg, pre 90%",12%
same,Ki-67% reduction,[7]; subject R1004,91%
same,Post Endoxifen Ki-67%,"[7]; subject R1004, 17 days on Endoxifen 4 mg, pre 22%",2%
same,Ki-67% reduction,[7]; subject R1005,60%
same,Post Endoxifen Ki-67%,"[7]; subject R1005, 40 days on Endoxifen 4 mg, pre 25%",10%
same,Ki-67% reduction,[7]; subject R1006,58%
same,Post Endoxifen Ki-67%,"[7]; subject R1006, 16 days on Endoxifen 4 mg, pre 12%",5%
same,"Ki-67 levels following treatment, all six patients",[7]; subsequent results,below 25%
same,"average reduction in tumor cell proliferation, as measured by Ki-67","[7]; subsequent results, 22 days of dosing, six subjects, p=0.031",about 74%
CCC(=C(c1ccc(O)cc1)c1ccc(OCCNC)cc1)c1ccccc1 [(E)-endoxifen],(E)-endoxifen levels in serum and plasma,[2]; [8],undetectable
same,(E)-endoxifen levels in serum and plasma,[2]; [9],undetectable
